Key:
Type in all cases: functional
[1] = test system: 786-0; test: Compound was tested for antitumor activity against 786-0 renal cancer cell line(molar concentration leading to 50% net cell death); details: Homo sapiens, read-out: Log LC50 (the source's name) (converted)
[2] = test system: TK-10; test: Compound was tested for antitumor activity against TK-10 renal cancer cell line(molar concentration leading to 50% net cell death); details: Homo sapiens
[3] = test system: ACHN; test: Compound was tested for antitumor activity against ACHN renal cancer cell line(molar concentration leading to 50% net cell death).; details: Homo sapiens
[4] = test system: ACHN; test: Compound was tested for antitumor activity against ACHN renal cancer cell line(molar concentration that inhibits 50% net cell growth).; details: Homo sapiens
[5] = test system: 786-0; test: Compound was tested for antitumor activity against 786-0 renal cancer cell line(molar concentration that inhibits 50% net cell growth).; details: Homo sapiens
[6] = test system: TK-10; test: Compound was tested for antitumor activity against TK-10 renal cancer cell line(molar concentration that inhibits 50% net cell growth); details: Homo sapiens

SMILES	CC50 [1] [µM]	LC50 (concentration causing 50% net cell death) [2] [µM]	LC50 (50% net cell death) [3] [µM]	GI50 [4] [µM]	GI50 [5] [µM]	GI50 [6] [µM]
O=C1Cc2c(-c3ccccc3)cc(-c3cccc(Cl)c3)nc2-c2ccccc2N1	5.37	17.4	24.5	1.15	0.977	1.48
SC1=Nc2ccccc2-c2nc(-c3cccc(Cl)c3)cc(-c3ccccc3)c2C1	4.79	9.55	19.1	0.617	0.977	0.437
O=C1Cc2c(-c3ccc(Br)cc3)cc(-c3ccccc3)nc2-c2ccccc2N1	9.55	2.24	50.1	3.98	1.62	0.186
SC1=Nc2ccccc2-c2nc(-c3ccccc3)cc(-c3ccc(Br)cc3)c2C1	4.47	7.76	5.89	0.871	0.631	1.78
O=C1Cc2c(-c3ccccc3)cc(-c3ccccc3)nc2-c2ccccc2N1	> 100	> 100	70.8	4.07	4.17	2.45
O=C1Cc2c(-c3ccccc3)cc(-c3ccccc3)nc2-c2cc(Br)ccc2N1	4.79	9.12	15.5	1.26	0.631	0.427
SC1=Nc2ccc(Br)cc2-c2nc(-c3ccccc3)cc(-c3ccccc3)c2C1	7.08	18.6	8.51	0.741	1.17	1.23
